Assay type in all cases: in vivo
Assay [1] concerns Colletotrichum gloeosporioides (Cg). The assay can be described thus: Antifungal activity of vapor against Colletotrichum gloeosporioides in avocados. To be noted: Example 9, vapor of 3 mL in a Petri dish for 72 hours, 7 days of incubation. As for the experimental part:
Example 7. The antifungal activity of AITC and DADS vapor against Colletotrichum gloeosporioides (Cg) was tested in avocados. All test pieces were wounded by removing the stem and infected by dispensing 1000 Cg spores suspended in 10 μL of water into the wound. The test groups consisted of avocados that were: untreated and uninfected; untreated and infected; treated by dipping in a solution of 0.1 g/L of prochloraz; exposed to the vapor of 3 mL of AITC disposed in a Petri dish; and exposed to the vapor of 3 mL of DADS disposed in a Petri dish. FIG. 9 quantifies the infection results. AITC vapor reduced the incidence of Cg mold by 97% compared to the untreated test group and 70% compared to the prochloraz treated test group. DADS vapor reduced the incidence of Cg mold by 60% compared to the untreated test group.
Example 8. The antifungal activity of a range of DADS vapor exposure times was tested against Cg in avocados. All test pieces were wounded by removing the stem and infected by dispensing 1000 Cg spores suspended in 10 μL of water into the wound. The test groups consisted of avocados that were: infected and untreated; and exposed to the vapor of 3 mL of DADS in a Petri dish for 24 hours, 48 hours, and 72 hours. FIG. 10 quantifies the infection results. Test group exposed to DADS vapor at all exposure times reduced the incidence of Cg mold compared to the untreated test group. A 24 hour DADS exposure reduced the incidence of Cg mold by 8%. A 48 hour DADS exposure reduced the incidence of Cg mold by 25%. A 72 hour DADS exposure reduced the incidence of Cg mold by 57%.
Example 9. The antifungal activity of a range of AITC and carvacrol vapor exposure times was tested against Cg in avocados. To measure the effect of the various treatments on ripening, durometer shore was taken after 7 days of incubation at ambient temperature and high humidity. All samples were wounded by removing the stem and infected by dispensing 1000 Cg spores suspended in 10 μL of water in the wound. The test groups consisted of avocados that were: infected and left untreated on the benchtop; infected and left untreated under a fume hood; exposed to the vapor of 3 mL of AITC in a Petri dish for 24 hours, 48 hours, and 72 hours; and exposed to the vapor of 3 mL of carvacrol in a Petri dish for 72 hours. FIG. 11 quantifies the infection results. […] All exposure times to AITC vapor reduced the incidence of Cg mold compared to the untreated samples. A 24 hour AITC exposure reduced the incidence of Cg mold by 90%. A 48 hour AITC exposure reduced the incidence of Cg mold by 97%. A 72 hour AITC exposure reduced the incidence of Cg mold by 83%. […]
Example 21. The antifungal activity of avocados exposed to AITC vapor and prochloraz was tested against Cg in avocados. To measure the effect of the various treatments on ripening, durometer shore was taken after 5 days of incubation at ambient temperature (about 20° C. to about 25° C.) and high humidity (about 88% relative humidity to about 93% relative humidity). All samples were wounded by removing the stem and infected by dispensing 1000 Cg spores suspended in 10 μL of water in the wound. Exposure to vapor was done by placing the avocados in an airtight container, dispensing AITC onto Whatman filter paper discs, suspending the discs in front of a battery-powered fan, closing the container and incubating the avocados for 30 minutes. After vapor exposure, the avocados were left at ambient temperature, high humidity, and assessed for Cg mold on day 5. Treatment groups consisted of avocados that were: exposed for 30 minutes to the vapor of 125 μL of AITC disposed on a filter paper disc; dipped in a solution of 0.1 g/L of prochloraz and placed to dry on a rack in front of a fan for 30 min; infected and left untreated; and uninfected and untreated. […] To prepare the 0.1 g/L of prochloraz, 10 mg of prochloraz was mixed with 10 mL of ethanol and 90 mL of water. […] A 24 hour AITC exposure reduced the incidence of Cg mold by 90%. […]

Assay [2] concerns Penicillium digitatum (Pd). Kind of assay: Antifungal activity of vapor against Penicillium digitatum in wounded, infected mandarins. To be noted: vapor of 62.5 μL AITC and/or 125 μL of all other compounds for 30 minutes, assessed after 6 days.
Another assay relates to avocados. Kind of assay: Durometer shore (ripening/firmness) of treated avocados. To be noted: Example 21; Cg-infected avocados; after 5 days; AITC 125 μL vapor 30 minutes, prochloraz 0.1 g/L dip. As for the experimental part: Example 9. The antifungal activity of a range of AITC and carvacrol vapor exposure times was tested against Cg in avocados. To measure the effect of the various treatments on ripening, durometer shore was taken after 7 days of incubation at ambient temperature and high humidity. All samples were wounded by removing the stem and infected by dispensing 1000 Cg spores suspended in 10 μL of water in the wound. The test groups consisted of avocados that were: infected and left untreated on the benchtop; infected and left untreated under a fume hood; exposed to the vapor of 3 mL of AITC in a Petri dish for 24 hours, 48 hours, and 72 hours; and exposed to the vapor of 3 mL of carvacrol in a Petri dish for 72 hours. FIG. 11 quantifies the infection results. […] All exposure times to AITC vapor reduced the incidence of Cg mold compared to the untreated samples. A 24 hour AITC exposure reduced the incidence of Cg mold by 90%. A 48 hour AITC exposure reduced the incidence of Cg mold by 97%. A 72 hour AITC exposure reduced the incidence of Cg mold by 83%.
Example 10. The antifungal activity of a range of AITC vapor exposure times were tested against Cg in avocados. To measure the effect of the various treatments on ripening, durometer shore was taken after 6 days of incubation at ambient temperature and high humidity. All samples were wounded by removing the stem and infected by dispensing 1000 Cg spores suspended in 10 μL of water in each wound. The test groups consisted of avocados that were: infected and left untreated on the benchtop; infected and left untreated in a fume hood; exposed to the vapor of 3 mL of AITC in a Petri dish for 24 hours, 48 hours, and 72 hours. FIG. 13 quantifies the infection results. […] All exposure times to AITC vapor reduced the incidence of Cg mold compared to the untreated samples.
Example 21. The antifungal activity of avocados exposed to AITC vapor and prochloraz was tested against Cg in avocados. To measure the effect of the various treatments on ripening, durometer shore was taken after 5 days of incubation at ambient temperature (about 20° C. to about 25° C.) and high humidity (about 88% relative humidity to about 93% relative humidity). All samples were wounded by removing the stem and infected by dispensing 1000 Cg spores suspended in 10 μL of water in the wound. Exposure to vapor was done by placing the avocados in an airtight container, dispensing AITC onto Whatman filter paper discs, suspending the discs in front of a battery-powered fan, closing the container and incubating the avocados for 30 minutes. After vapor exposure, the avocados were left at ambient temperature, high humidity, and assessed for Cg mold on day 5. Treatment groups consisted of avocados that were: exposed for 30 minutes to the vapor of 125 μL of AITC disposed on a filter paper disc; dipped in a solution of 0.1 g/L of prochloraz and placed to dry on a rack in front of a fan for 30 min; infected and left untreated; and uninfected and untreated. […] To prepare the 0.1 g/L of prochloraz, 10 mg of prochloraz was mixed with 10 mL of ethanol and 90 mL of water. […] A 24 hour AITC exposure reduced the incidence of Cg mold by 90%. […] The mean shore value for the untreated avocados was 28.8 (standard deviation (SD)=10.8). The mean shore value for the infected avocados was 47.3 (SD=11.8). The mean shore value of the positive control, prochloraz treated avocados was 44.3 (SD=14.7). The mean shore value of the AITC treated avocados was 61.1 (SD=10.5).
Durometer Shore Measurement: A Fruit Hardness Tester—HPE III Fff w/Sphere Ø 5.0 mm Test Anvil is used for the measurements. The Operating Procedure is as follows: • 1) At room temperature and 1 atm pressure, switch on the measuring device and press the hull or sleeve against the specimen so that the contact surface of the pressure plate rests on the fruit. […]

Structures are written as SMILES.

With `Cc1ccc(C(C)C)cc1O` [carvacrol], the “reduction of the incidence of Cg mold” value in assay [1] is recorded as “did not reduce the incidence of Cg mold”.
With `C=CCc1ccc(O)c(OC)c1` [eugenol], the “performance against Pd compared with untreated samples” value in assay [2] is given as “performed better than the untreated samples”.
As to `CCCN(CCOc1c(Cl)cc(Cl)cc1Cl)C(=O)n1ccnc1` [prochloraz, reference compound], in the assay with avocados, the mean shore value is recorded as 44.3 (SD=14.7) shore.
